Source: the supplement of paper PMC10920090

Key:
MDA-MB-231 [1] = experiment: drug sensitivity score (DSS), cytotoxicity CellTox Green; higher = more cytotoxic; extreme values may be limits of the assay; settings: 72 h
MDA-MB-231 [2] = experiment: drug sensitivity score (DSS), cell viability CellTiter-Glo; higher = more sensitive; extreme values may be limits of the assay; settings: 72 h
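For drug sensitivity score (DSS), cytotoxicity CellTox Green in this document: DSS summarises each dose–response curve by combining IC50, EC50, maximal inhibition and efficacy across drug concentrations.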

COc1cc2/c(=N/c3ccc(Br)cc3F)nc[nH]c2cc1OCC1CCN(C)CC1 [Vandetanib]
drug sensitivity score (MDA-MB-231 [1]; shRNA: shPPFIA1_1): 0 DSS | drug sensitivity score (MDA-MB-231 [1]; shRNA: shScramble): 2 DSS | drug sensitivity score (MDA-MB-231 [2]; shRNA: shPPFIA1_1): 3.6 DSS | drug sensitivity score (MDA-MB-231 [2]; shRNA: shScramble): 0 DSS

CCc1c(C(=O)C(N)=O)c2c(OCC(=O)O)cccc2n1Cc1ccccc1 [Varespladib]
drug sensitivity score (MDA-MB-231 [1]; shRNA: shPPFIA1_1): 0 DSS | drug sensitivity score (MDA-MB-231 [1]; shRNA: shScramble): 0 DSS | drug sensitivity score (MDA-MB-231 [2]; shRNA: shPPFIA1_1): 0 DSS | drug sensitivity score (MDA-MB-231 [2]; shRNA: shScramble): 0 DSS

Clc1ccc(Nc2nnc(Cc3ccncc3)c3ccccc23)cc1 [Vatalanib]
drug sensitivity score (MDA-MB-231 [1]; shRNA: shPPFIA1_1): 0 DSS | drug sensitivity score (MDA-MB-231 [1]; shRNA: shScramble): 0 DSS | drug sensitivity score (MDA-MB-231 [2]; shRNA: shPPFIA1_1): 0 DSS | drug sensitivity score (MDA-MB-231 [2]; shRNA: shScramble): 0 DSS

C[C@]1(c2nc3c(C(N)=O)cccc3[nH]2)CCCN1 [Veliparib]
drug sensitivity score (MDA-MB-231 [1]; shRNA: shPPFIA1_1): 0 DSS | drug sensitivity score (MDA-MB-231 [1]; shRNA: shScramble): 0 DSS | drug sensitivity score (MDA-MB-231 [2]; shRNA: shPPFIA1_1): 0 DSS | drug sensitivity score (MDA-MB-231 [2]; shRNA: shScramble): 0 DSS

CCCS(=O)(=O)Nc1ccc(F)c(C(=O)c2c[nH]c3ncc(-c4ccc(Cl)cc4)cc23)c1F [Vemurafenib]
drug sensitivity score (MDA-MB-231 [1]; shRNA: shPPFIA1_1): 0 DSS | drug sensitivity score (MDA-MB-231 [1]; shRNA: shScramble): 1.8 DSS | drug sensitivity score (MDA-MB-231 [2]; shRNA: shPPFIA1_1): 0 DSS | drug sensitivity score (MDA-MB-231 [2]; shRNA: shScramble): 0 DSS

CC1(C)CCC(CN2CCN(c3ccc(C(=O)NS(=O)(=O)c4ccc(NCC5CCOCC5)c([N+](=O)[O-])c4)c(Oc4cnc5[nH]ccc5c4)c3)CC2)=C(c2ccc(Cl)cc2)C1 [Venetoclax]
drug sensitivity score (MDA-MB-231 [1]; shRNA: shPPFIA1_1): 0 DSS | drug sensitivity score (MDA-MB-231 [1]; shRNA: shScramble): 0 DSS | drug sensitivity score (MDA-MB-231 [2]; shRNA: shPPFIA1_1): 0 DSS | drug sensitivity score (MDA-MB-231 [2]; shRNA: shScramble): 0 DSS

O=C(/C=C\n1cnc(-c2cc(C(F)(F)F)cc(C(F)(F)F)c2)n1)NNc1ccccn1 [Verdinexor]
drug sensitivity score (MDA-MB-231 [1]; shRNA: shPPFIA1_1): 4.4 DSS | drug sensitivity score (MDA-MB-231 [1]; shRNA: shScramble): 4.2 DSS | drug sensitivity score (MDA-MB-231 [2]; shRNA: shPPFIA1_1): 0 DSS | drug sensitivity score (MDA-MB-231 [2]; shRNA: shScramble): 5.7 DSS

CC[C@]1(O)C[C@@H]2CN(CCc3c([nH]c4ccccc34)[C@@](C(=O)OC)(c3cc4c(cc3OC)N(C)[C@H]3[C@@](O)(C(=O)OC)[C@H](OC(C)=O)[C@]5(CC)C=CCN6CC[C@]43[C@@H]65)C2)C1 [Vinblastine]
drug sensitivity score (MDA-MB-231 [1]; shRNA: shPPFIA1_1): 9 DSS | drug sensitivity score (MDA-MB-231 [1]; shRNA: shScramble): 9.2 DSS | drug sensitivity score (MDA-MB-231 [2]; shRNA: shPPFIA1_1): 0 DSS | drug sensitivity score (MDA-MB-231 [2]; shRNA: shScramble): 9.6 DSS

CC[C@]1(O)C[C@H]2CN(CCc3c([nH]c4ccccc34)[C@@](C(=O)OC)(c3cc4c(cc3OC)N(C=O)[C@H]3[C@@](O)(C(=O)OC)[C@H](OC(C)=O)[C@]5(CC)C=CCN6CC[C@]43[C@@H]65)C2)C1 [Vincristine]
drug sensitivity score (MDA-MB-231 [1]; shRNA: shPPFIA1_1): 4.9 DSS | drug sensitivity score (MDA-MB-231 [1]; shRNA: shScramble): 6 DSS | drug sensitivity score (MDA-MB-231 [2]; shRNA: shPPFIA1_1): 0 DSS | drug sensitivity score (MDA-MB-231 [2]; shRNA: shScramble): 8.1 DSS

CS(=O)(=O)c1ccc(C(=O)Nc2ccc(Cl)c(-c3ccccn3)c2)c(Cl)c1 [Vismodegib]
drug sensitivity score (MDA-MB-231 [1]; shRNA: shPPFIA1_1): 2.2 DSS | drug sensitivity score (MDA-MB-231 [1]; shRNA: shScramble): 0 DSS | drug sensitivity score (MDA-MB-231 [2]; shRNA: shPPFIA1_1): 0 DSS | drug sensitivity score (MDA-MB-231 [2]; shRNA: shScramble): 0 DSS

CC[C@@H]1C(=O)N(C)c2cnc(Nc3ccc(C(=O)N[C@H]4CC[C@H](N5CCN(CC6CC6)CC5)CC4)cc3OC)nc2N1C(C)C [Volasertib]
drug sensitivity score (MDA-MB-231 [1]; shRNA: shPPFIA1_1): 0 DSS | drug sensitivity score (MDA-MB-231 [1]; shRNA: shScramble): 0 DSS | drug sensitivity score (MDA-MB-231 [2]; shRNA: shPPFIA1_1): 0 DSS | drug sensitivity score (MDA-MB-231 [2]; shRNA: shScramble): 6.6 DSS

O=C(CCCCCCC(=O)Nc1ccccc1)NO [Vorinostat]
drug sensitivity score (MDA-MB-231 [1]; shRNA: shPPFIA1_1): 6.9 DSS | drug sensitivity score (MDA-MB-231 [1]; shRNA: shScramble): 2.5 DSS | drug sensitivity score (MDA-MB-231 [2]; shRNA: shPPFIA1_1): 2.4 DSS | drug sensitivity score (MDA-MB-231 [2]; shRNA: shScramble): 6.6 DSS

CCn1c(=O)c(-c2cc[nH]n2)cc2c(C)nc(N)nc21 [Voxtalisib]
drug sensitivity score (MDA-MB-231 [1]; shRNA: shPPFIA1_1): 0 DSS | drug sensitivity score (MDA-MB-231 [1]; shRNA: shScramble): 0.2 DSS | drug sensitivity score (MDA-MB-231 [2]; shRNA: shPPFIA1_1): 0.8 DSS | drug sensitivity score (MDA-MB-231 [2]; shRNA: shScramble): 4.3 DSS

Oc1nc(-c2ccc(C(F)(F)F)cc2)nc2c1CSCC2 [XAV-939]
drug sensitivity score (MDA-MB-231 [1]; shRNA: shPPFIA1_1): 1.2 DSS | drug sensitivity score (MDA-MB-231 [1]; shRNA: shScramble): 0 DSS | drug sensitivity score (MDA-MB-231 [2]; shRNA: shPPFIA1_1): 1.6 DSS | drug sensitivity score (MDA-MB-231 [2]; shRNA: shScramble): 0.5 DSS

O=C(Nc1ccc(-c2ccnc(Nc3ccc(N4CCOCC4)cc3)n2)cc1)C1CCCN1 (stereo unspecified) [XL019]
drug sensitivity score (MDA-MB-231 [1]; shRNA: shPPFIA1_1): 0 DSS | drug sensitivity score (MDA-MB-231 [1]; shRNA: shScramble): 0 DSS | drug sensitivity score (MDA-MB-231 [2]; shRNA: shPPFIA1_1): 0 DSS | drug sensitivity score (MDA-MB-231 [2]; shRNA: shScramble): 0.6 DSS

COc1cc2c(Nc3ccc(Cl)c(Cl)c3F)ncnc2cc1OC[C@@H]1C[C@@H]2CN(C)C[C@@H]2C1 [XL-647]
drug sensitivity score (MDA-MB-231 [1]; shRNA: shPPFIA1_1): 0 DSS | drug sensitivity score (MDA-MB-231 [1]; shRNA: shScramble): 0 DSS | drug sensitivity score (MDA-MB-231 [2]; shRNA: shPPFIA1_1): 0 DSS | drug sensitivity score (MDA-MB-231 [2]; shRNA: shScramble): 0 DSS

COCC[n+]1c2c(n(Cc3cnccn3)c1C)C(=O)c1ccccc1C2=O [YM155]
drug sensitivity score (MDA-MB-231 [1]; shRNA: shPPFIA1_1): 20.5 DSS | drug sensitivity score (MDA-MB-231 [1]; shRNA: shScramble): 34.6 DSS | drug sensitivity score (MDA-MB-231 [2]; shRNA: shPPFIA1_1): 24.1 DSS | drug sensitivity score (MDA-MB-231 [2]; shRNA: shScramble): 33.4 DSS

FC(F)c1nc2ccccc2n1-c1nc(N2CCOCC2)nc(N2CCOCC2)n1 [ZSTK474]
drug sensitivity score (MDA-MB-231 [1]; shRNA: shPPFIA1_1): 0 DSS | drug sensitivity score (MDA-MB-231 [1]; shRNA: shScramble): 0 DSS | drug sensitivity score (MDA-MB-231 [2]; shRNA: shPPFIA1_1): 0.2 DSS | drug sensitivity score (MDA-MB-231 [2]; shRNA: shScramble): 6.1 DSS

c1ccc(Cn2c(-c3ccc(OC[C@H](C4CCNCC4)n4c(-c5ccccc5)nc5ccccc54)cc3)nc3ccccc32)cc1 [deltarasin]
drug sensitivity score (MDA-MB-231 [1]; shRNA: shPPFIA1_1): 9.2 DSS | drug sensitivity score (MDA-MB-231 [1]; shRNA: shScramble): 7.3 DSS | drug sensitivity score (MDA-MB-231 [2]; shRNA: shPPFIA1_1): 5.7 DSS | drug sensitivity score (MDA-MB-231 [2]; shRNA: shScramble): 7.3 DSS
